Source: ChEMBL document CHEMBL1158792, “Constituents of the leaves of Macaranga tanarius” (J Nat Prod, 2005)
In brackets after ≈: the same amount, converted by molar mass. Activity calls are given as the source filed them. The rule behind the calls is not given here.

Legend:
[1] = molecular target: T1, Prostaglandin G/H synthase 2 (Mus musculus) (UniProt Q05769); assay: (§1) Inhibition of COX2 in mouse lung fibroblast assessed as PGE2 production by radioimmunoassay
T1 sequence (whole entry): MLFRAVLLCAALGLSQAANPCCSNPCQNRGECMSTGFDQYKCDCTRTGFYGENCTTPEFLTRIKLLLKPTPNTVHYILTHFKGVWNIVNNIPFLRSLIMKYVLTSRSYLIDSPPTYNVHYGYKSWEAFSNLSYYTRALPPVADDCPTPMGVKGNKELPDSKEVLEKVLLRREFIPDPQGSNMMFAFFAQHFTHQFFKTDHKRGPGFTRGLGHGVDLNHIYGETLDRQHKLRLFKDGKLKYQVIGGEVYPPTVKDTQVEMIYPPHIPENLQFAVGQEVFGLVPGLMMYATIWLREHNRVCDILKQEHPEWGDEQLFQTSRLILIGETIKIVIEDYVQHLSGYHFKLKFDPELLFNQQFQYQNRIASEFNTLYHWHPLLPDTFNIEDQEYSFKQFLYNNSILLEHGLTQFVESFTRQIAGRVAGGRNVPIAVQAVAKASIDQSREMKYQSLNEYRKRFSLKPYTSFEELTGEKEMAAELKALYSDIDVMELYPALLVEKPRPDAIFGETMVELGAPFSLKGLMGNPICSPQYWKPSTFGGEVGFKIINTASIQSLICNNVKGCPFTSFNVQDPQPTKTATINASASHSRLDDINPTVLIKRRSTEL

KB = assay: Cytotoxicity against human KB cells; format: functional, cell-based
BC = assay: (§2) Cytotoxicity against human BC cells; format: functional, cell-based
NCI-H187 = assay: Cytotoxicity against human NCI-H187 cells; format: functional, cell-based
[2] = system: Radical scavenging activity; assay: Antioxidant activity assessed as DPPH radical scavenging activity by DPPH stable radical assay
[3] = as §2; format: functional, cell-based
Vero = assay: Cytotoxicity against african green monkey Vero cells; format: cell-based; settings: Chlorocebus sabaeus
[4] = molecular target: T2, Prostaglandin G/H synthase 2 (Mus musculus, UniProt Q05769); assay: as §1
T2 sequence (Q05769 whole entry): T1 sequence (whole entry)

Compound: COc1ccc([C@@H]2CC(=O)c3c(cc(OC)c(CC=C(C)C)c3O)O2)c(C/C=C(\C)CCC=C(C)C)c1O
- Activity [1]: inactive
- Activity (KB): inactive
- Activity (BC): inactive
- Activity (NCI-H187): inactive
- IC50 [2]: 413 µM

Compound: COc1cc(O)c2c(c1)O[C@H](c1ccc(OC)c(OC)c1C/C=C(\C)CCC=C(C)C)CC2=O
- Activity [1]: inactive
- Activity (KB): inactive
- Activity (BC): inactive
- Activity (NCI-H187): inactive

Compound: C=C(C)C(O)CC/C(C)=C/Cc1c(O)cc2c(c1O)C(=O)C[C@@H](c1ccc(O)c(O)c1)O2 (some centres undefined) [TANARIFLAVANONE D]
- IC50 [3]: 6.5 µg/mL (≈ 14.8 µM)
- Activity (NCI-H187): inactive
- IC50 (Vero): 19.5 µg/mL (≈ 44.3 µM)
- IC50 [2]: 20 µM

Compound: CC(C)=CCC/C(C)=C/Cc1c(O)cc2c(c1O)C(=O)C[C@@H](c1ccc(O)c(O)c1)O2 [NYMPHAEOL A]
- IC50 (KB): 4.6 µg/mL (≈ 10.8 µM)
- IC50 [3]: 2.7 µg/mL (≈ 6.36 µM)
- IC50 (NCI-H187): 1.5 µg/mL (≈ 3.53 µM)
- IC50 (Vero): 3.8 µg/mL (≈ 8.95 µM)
- IC50 [2]: 14 µM

Compound: CC(C)=CCCC1(C)C=Cc2c([C@@H]3CC(=O)c4c(cc(O)c(CC=C(C)C)c4O)O3)ccc(O)c2O1 (some centres undefined)
- Activity [1]: inactive
- Activity (KB): inactive
- Activity (BC): inactive
- Activity (NCI-H187): inactive

Compound: Cc1cc(C(C)(C)C)c(O)c(C(C)(C)C)c1 [BUTYLATED HYDROXYTOLUENE]
- IC50 [2]: 30 µM

Compound: CC1=CC(=O)CC(C)(C)[C@@]1(O)/C=C/[C@@H](C)O
- Activity [1]: inactive
- Activity (KB): inactive
- Activity (BC): inactive
- Activity (NCI-H187): inactive

Compound: COc1ccc([C@@H]2CC(=O)c3c(cc(OC)c(C/C=C(\C)CCC=C(C)C)c3O)O2)cc1OC
- Activity [1]: inactive
- Activity (KB): inactive
- Activity (BC): inactive
- Activity (NCI-H187): inactive

Compound: CC(C)=CCC/C(C)=C/Cc1c([C@@H]2CC(=O)c3c(O)cc(O)cc3O2)ccc(O)c1O [NYMPHAEOL B]
- IC50 [4]: 8.72 µM
- Activity (KB): inactive
- Activity (BC): inactive
- Activity (NCI-H187): inactive
- IC50 [2]: 13 µM

Compound: CC1=CC(=O)CC(C)(C)[C@@]1(O)CC[C@@H](C)O
- Activity [1]: inactive
- Activity (KB): inactive
- Activity (BC): inactive
- Activity (NCI-H187): inactive

Compound: C=C(C)C(O)Cc1c(O)cc2c(c1O)C(=O)C[C@@H](c1ccc(O)c(O)c1C/C=C(\C)CCC=C(C)C)O2 (some centres undefined) [TANARIFLAVANONE C]
- Activity [1]: inactive
- Activity (KB): inactive
- Activity (BC): inactive
- Activity (NCI-H187): inactive
- IC50 [2]: 33 µM

Compound: CC(C)=CCC/C(C)=C/Cc1c([C@@H]2CC(=O)c3c(cc(O)c(CC=C(C)C)c3O)O2)ccc(O)c1O [NYMPHAEOL C]
- Activity [1]: inactive
- Activity (KB): inactive
- Activity (BC): inactive
- Activity (NCI-H187): inactive
- IC50 [2]: 15 µM

Compound: COc1cc2c(c(O)c1CC=C(C)C)C(=O)C[C@@H](c1ccc(OC)c(OC)c1C/C=C(\C)CCC=C(C)C)O2
- Activity [1]: inactive
- Activity (KB): inactive
- Activity (BC): inactive
- Activity (NCI-H187): inactive
- IC50 [2]: 599 µM

Compound: COc1cc(O)c2c(c1)O[C@H](c1ccc(OC)c(O)c1C/C=C(\C)CCC=C(C)C)CC2=O
- Activity [1]: inactive
- Activity (KB): inactive
- Activity (BC): inactive
- Activity (NCI-H187): inactive
